The target in one assay is KIT kinase (Homo sapiens, UniProt P10721). Nature of the assay: KIT in vitro biochemical kinase study (Caliper EZ Reader). The settings on record: Caliper mobility shift; read-out: Enzymatic experiment KIT IC50. The protocol: (§1) B. KIT/PDGFRA In Vitro Biochemical Kinase Study
(§2) 1. Preparation of 1-Fold Kinase Buffer and Stop Solution
(§3) 1.2 stop solution: 100 mM HEPES, pH 7.5, 0.015% Brij-35, 0.2% Coating Reagent #3, 50 mM EDTA
(§4) 2. Preparation of Compound Solution
(§5) 2.1 Dilution of Compound Solution
(§6) 1) The final concentration of the compound solution was 40 μM, and the concentration of the prepared stock solution was 50 times of the final concentration, i.e., 2 mM.
(§7) 2) 80 μL of 100% DMSO was added to the second well of the 96-well plate, then 20 μL of 10 mM compound solution was added, and thereby 2 mM compound solution was prepared, 60 μL of 100% DMSO was added to other wells, 20 μL of compound was taken from the second well, added to the third well and diluted by 4 times. This serial 4-time dilution was conducted in sequence for the total of 10 concentrations.
(§8) 2.2 5-Fold Compound Solution Transferred to a Reaction Plate
(§9) 1) 10 μL of solution was taken from each well of the above 96-well plate and added to another 96-well plate, and 90 μL of kinase buffer was added.
(§10) 2) 5 μL of solution was taken from the above 96-well plate and added to a 384-well reaction plate.
(§11) 1) KIT/PDGFRA kinase was added to the 1-fold kinase buffer solution to obtain a 2.5-fold kinase solution.
(§12) 2) FAM-labeled polypeptide and ATP were added to the 1-fold kinase buffer solution to obtain a 2.5-fold substrate solution.
(§13) 3) 10 μL of 2.5-fold kinase solution was added to the 384-well reaction plate, which already contained 5 μL of 5-fold compound in 10% DMSO. And the mixed solution was incubated at room temperature for 10 min.
(§14) 4) 10 μL of 2.5-fold substrate solution was added to the 384-well reaction plate.
(§15) 5) Kinase reaction and termination: the mixed solution was incubated at 28° C. for a certain period of time, and 25 μL of stop solution was added to stop the reaction.
(§16) 2.4 Data Reading of Caliper EZ Reader II
(§17) 2.5 Calculation of Percent Inhibition and IC50
(§18) 1) Percent conversion data were copied from the Caliper EZ Reader. […]

For a further assay, the target named is PDGFRA kinase (Homo sapiens, UniProt P16234). Nature of the assay: PDGFRA in vitro biochemical kinase study (Caliper EZ Reader). The settings on record: Caliper mobility shift; read-out: Enzymatic experiment PDGFRA IC50. As to the method: as §1, §2, §3, §4, §5, §6, §7, §8, §9, §10, §11, §12, §13, §14, §15, §16, §17, §18
Sequence of PDGFRA kinase (P16234 24-1089): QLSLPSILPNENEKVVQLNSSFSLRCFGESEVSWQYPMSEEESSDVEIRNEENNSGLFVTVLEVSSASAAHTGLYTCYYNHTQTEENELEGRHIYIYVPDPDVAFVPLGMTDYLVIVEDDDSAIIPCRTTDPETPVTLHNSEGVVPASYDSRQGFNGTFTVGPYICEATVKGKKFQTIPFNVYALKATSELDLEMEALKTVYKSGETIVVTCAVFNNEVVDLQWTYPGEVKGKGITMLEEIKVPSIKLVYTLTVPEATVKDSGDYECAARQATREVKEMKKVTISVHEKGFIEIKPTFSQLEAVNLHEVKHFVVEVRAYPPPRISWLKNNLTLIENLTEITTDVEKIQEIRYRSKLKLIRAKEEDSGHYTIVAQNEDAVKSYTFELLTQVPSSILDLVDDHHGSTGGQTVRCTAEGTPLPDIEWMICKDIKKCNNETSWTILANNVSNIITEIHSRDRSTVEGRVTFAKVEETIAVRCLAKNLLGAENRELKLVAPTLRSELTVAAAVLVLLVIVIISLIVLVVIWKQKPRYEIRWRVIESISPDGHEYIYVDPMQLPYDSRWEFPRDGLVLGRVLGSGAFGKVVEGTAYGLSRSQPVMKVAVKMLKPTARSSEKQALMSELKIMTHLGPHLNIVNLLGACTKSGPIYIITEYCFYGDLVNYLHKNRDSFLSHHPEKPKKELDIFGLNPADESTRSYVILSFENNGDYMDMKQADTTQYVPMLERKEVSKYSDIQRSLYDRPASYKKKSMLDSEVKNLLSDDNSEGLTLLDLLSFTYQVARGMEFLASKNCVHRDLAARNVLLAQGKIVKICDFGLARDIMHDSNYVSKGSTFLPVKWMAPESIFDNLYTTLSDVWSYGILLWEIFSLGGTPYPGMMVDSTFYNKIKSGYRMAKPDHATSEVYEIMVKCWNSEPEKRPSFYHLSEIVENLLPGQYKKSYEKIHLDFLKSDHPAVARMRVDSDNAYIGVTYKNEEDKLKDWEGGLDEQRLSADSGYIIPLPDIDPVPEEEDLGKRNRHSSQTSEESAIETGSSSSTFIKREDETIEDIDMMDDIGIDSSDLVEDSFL
In assay [1] the test system is MV-4-11 human acute monocytic leukemia cells. Nature of the assay: Cell proliferation (Cell Titer Glo), MV-4-11 cells (FLT3). Format: cell-based. The settings on record: MV4-11, 72 h, 3 days, CTG, * = average of multiple tests, read-out: Cytological experiment FLT3 IC50. As to the method:
(§19) D. CSF-1R-Related Cell Proliferation Experiment
(§20) Functional effects of compounds on the proliferation of several cell lines were evaluated by Cell Titer Glo (CTG) studies in the present invention, and effects of the compounds on the proliferation of different cells were evaluated to determine the selectivity degree of the compounds. In the experiment, M-07e human cytomegalic leukemia cells (cat. No. CBP60791) from Nanjing Kebai Biotechnology Co., Ltd. were cultured in an incubator under conditions of RPMI1640 (Gibco, cat. No. 11875-119), 20% fetal bovine serum (Gibco, 10099-141), human 10 ng/mL GM-CSF granulocyte macrophage colony-stimulating factors (R&D, cat. No. 215-GM-010), 37° C., and 5% CO2; and Kasumi-1 human acute myeloblastic leukemia cells (cat. No. CBP60524) were cultured in an incubator under conditions of RPMI1640 (Gibco, cat. No. 11875-119), 20% fetal bovine serum (Gibco, 10099-141), 37° C., and 5% CO2: NCI-H1703 human non-small cell lung squamous carcinoma cells (cat. No. CBP60115) were cultured in an incubator under conditions of RPMI1640 (Gibco, cat. No. 11875-119), 10% fetal bovine serum (Gibco, 10099-141), 37° C., and 5% CO2; MV-4-11 human acute monocytic leukemia cells (cat. No. CBP60522) were cultured in an incubator under conditions of IMDM (Invitrogen, cat. No. 12440053), 20% fetal bovine serum (Gibco, 10099-141), 37° C., and 5% CO2. Since ATP is an index for viable cell metabolism, CTG (Promega, #G7573) reagent is a homogeneous detection method for detecting the number of viable cells in the culture by quantifying ATP. Therefore, compound-mediated inhibition for cell proliferation/survival was evaluated by quantifying ATP content in cells, and the specific experimental process was as follows.
III) MV-4-11 Human Acute Monocytic Leukemia Cell
1. The cells were inoculated into a tissue-culture-medium-treated 96-well plate (Costar #3904) with 5000 cells/well/90 μL fresh culture medium, and cultured for 24 hrs:
2. the next day, 10 μL of culture medium containing testing compound with 10-fold of final concentration was added to each well;
(§21) 3. the dosage effect was evaluated by testing 3-fold serial dilutions of the compound, which started from 18 μM;
4. after the cells were incubated for 3 days at 37° C. and 5% CO2, the inhibition on cell survival was quantified after 50 μL of CTG was added and the luminescence assay was performed;
(§22) 5. the compound concentration leading to half maximal inhibitory (IC50) and the compound concentration leading to absolute half maximal inhibitory (Absolute IC50) were measured by a plate reader (M1000, Tecan) and a four-parameter curve fit in Graphpad Prism 7.

Assay [2] concerns NCI-H1703 human non-small cell lung squamous carcinoma cells. Nature of the assay: Cell proliferation (Cell Titer Glo), NCI-H1703 cells (PDGFRA). The settings on record: 72 h, 3 days, CTG, * = average of multiple tests, read-out: Cytological experiment PDGFRA IC50. Format: cell-based. As to the method: as §19, §20
II) NCI-H1703 Human Non-Small Cell Lung Squamous Carcinoma Cell
1. The cells were inoculated into a tissue-culture-medium-treated 96-well plate (Costar #3904) with 5000 cells/well/90 μL fresh culture medium, and cultured for 24 hrs;
2. the next day, 10 μL of culture medium containing testing compound with 10-fold of final concentration was added to each well:
as §21
4. after the cells were incubated for 3 days at 37° C. and 5% CO2, the inhibition on cell survival was quantified after 50 μL of CTG was added and the luminescence assay was performed:
as §22

Sequence of KIT kinase (P10721 26-976): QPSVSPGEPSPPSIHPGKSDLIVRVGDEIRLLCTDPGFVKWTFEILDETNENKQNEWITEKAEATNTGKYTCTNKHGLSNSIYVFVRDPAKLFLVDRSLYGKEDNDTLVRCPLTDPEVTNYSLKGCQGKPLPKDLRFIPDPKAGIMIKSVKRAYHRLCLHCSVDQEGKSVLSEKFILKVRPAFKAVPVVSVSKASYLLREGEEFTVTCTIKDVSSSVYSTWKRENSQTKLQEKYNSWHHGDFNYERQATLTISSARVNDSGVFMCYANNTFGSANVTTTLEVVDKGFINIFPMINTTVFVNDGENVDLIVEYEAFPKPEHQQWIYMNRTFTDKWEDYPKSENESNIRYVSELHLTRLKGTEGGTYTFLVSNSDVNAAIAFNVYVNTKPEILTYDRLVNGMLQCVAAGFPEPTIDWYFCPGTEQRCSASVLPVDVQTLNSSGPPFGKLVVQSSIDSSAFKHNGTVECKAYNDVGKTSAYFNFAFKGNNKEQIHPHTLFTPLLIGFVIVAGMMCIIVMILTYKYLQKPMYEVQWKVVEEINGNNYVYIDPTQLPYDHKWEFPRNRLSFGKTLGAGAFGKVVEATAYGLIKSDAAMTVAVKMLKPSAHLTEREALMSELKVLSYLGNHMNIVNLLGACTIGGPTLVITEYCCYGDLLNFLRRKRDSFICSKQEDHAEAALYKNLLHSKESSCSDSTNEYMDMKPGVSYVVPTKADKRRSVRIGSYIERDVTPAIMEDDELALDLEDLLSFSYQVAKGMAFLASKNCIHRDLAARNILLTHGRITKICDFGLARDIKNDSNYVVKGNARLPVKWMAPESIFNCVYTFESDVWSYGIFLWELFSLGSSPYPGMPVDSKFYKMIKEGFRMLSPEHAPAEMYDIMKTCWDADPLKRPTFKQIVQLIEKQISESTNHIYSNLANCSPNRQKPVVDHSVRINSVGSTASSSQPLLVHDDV

For the compound `Cc1nc(-c2cnc3n(c2=O)CCCN3C)ccc1Oc1ccnc(-c2cnn(C)c2)c1` [Example 1, 9-methyl-3-(6-methyl-5-((2-(1-methyl-1H-pyrazol-4-yl)pyridin-4-yl)oxy)pyridin-2-yl)-6,7,8,9-tetrahydro-4H-pyrimido[1,2-a]pyrimidin-4-one], the IC50 was 365 nM on KIT kinase, 9310 nM at PDGFRA kinase, more than 6000 nM in assay [1] and more than 18000 nM in assay [2].

Take `CCN1CCCn2c1ncc(-c1ccc(Oc3ccnc(-c4cnn(C)c4)c3)c(C)n1)c2=O` [Example 4]: the IC50 on KIT kinase is 20.5 nM; at PDGFRA kinase it was 757 nM; in assay [1], 1810 nM; in assay [2] it was more than 2000 nM.

Source of the values: US11130762B2, “Azaaryl derivative, preparation method therefor, and application thereof for use in pharmacy” (Abbisko Therapeutics Co., Ltd., priority 2017, dated 2021).
